“And” between values parts separate entries of the source, which are not always exact repeats. Equal values may be shown once. “Also recorded” adds a separate entry of the source.
Assays:
[1] = molecular target: T1, acetylcholinesterase (AChE from Electrophorus electricus) (Electrophorus electricus, UniProt O42275); test: Ellman assay, AChE inhibitory activity; type: biochemical; conditions: IC50 ± SEM, Ellman's assay
T1 construct: purchased Sigma-Aldrich
Method: The Ellman assay was used to test acetylcholinesterase (AChE from Electrophorus electricus) inhibition activity. A mixture of the DTNB (125 µL), enzyme solution (25 µL), and compound solution (25 µL) was prepared and incubated at room temperature for 20 min. All the assays were under 0.1 M KH2PO4/K2HPO4 buffer, pH 8.0. The substrate was added to start the enzymatic reaction. […] All measurements were performed fivefold as triplicate. The compounds were assayed in a dilution interval of 15 to 500 µg/mL.

[2] = molecular target: T1, acetylcholinesterase (AChE from Electrophorus electricus); test: Kinetic characterization of AChE inhibition (Lineweaver–Burk); type: biochemical; conditions: for Vmax: Lineweaver–Burk; for α: alpha calculated from Lineweaver–Burk plots; for type of inhibition: from Lineweaver–Burk plots and alpha
Method: To investigate the inhibition mechanism of the tested compounds on AChE, a kinetic analysis was performed. The experiments were carried out using a combination of four substrate concentrations and three inhibitor concentrations with the aim to obtain a double reciprocal plot (Lineweaver–Burk), in which each point is the mean of three different experiments. A parallel control with no inhibitor in the mixture allowed adjusted activities to be measured at various times.

PAS of EeAChE = molecular target: T2, PAS of EeAChE (Electrophorus electricus, UniProt O42275); test: Propidium iodide displacement assay; type: binding; conditions: five units EeAChE, 1 µM propidium iodide solution, triplicate
T2 construct: purchased Sigma-Aldrich
Method: By interacting with soluble β-amyloid peptides and facilitating their aggregation, the AChE peripheral anionic site (PAS) at the gorge’s edge contributes to AChE’s pro-aggregation capacity toward β-amyloid. […] The potential ability of compounds to bind PAS and thus block the pro-aggregation activity of AChE is possible to evaluate through competitive propidium displacement from the PAS of AChE.
The percentage inhibition was calculated by the following expression: 100 − (IFi/IF0 × 100), where IF1 and IF0 correspond to fluorescence intensities with and without the test compound, respectively. Each assay was carried out in triplicate independent experiments.

T1 sequence (O42275 24-633): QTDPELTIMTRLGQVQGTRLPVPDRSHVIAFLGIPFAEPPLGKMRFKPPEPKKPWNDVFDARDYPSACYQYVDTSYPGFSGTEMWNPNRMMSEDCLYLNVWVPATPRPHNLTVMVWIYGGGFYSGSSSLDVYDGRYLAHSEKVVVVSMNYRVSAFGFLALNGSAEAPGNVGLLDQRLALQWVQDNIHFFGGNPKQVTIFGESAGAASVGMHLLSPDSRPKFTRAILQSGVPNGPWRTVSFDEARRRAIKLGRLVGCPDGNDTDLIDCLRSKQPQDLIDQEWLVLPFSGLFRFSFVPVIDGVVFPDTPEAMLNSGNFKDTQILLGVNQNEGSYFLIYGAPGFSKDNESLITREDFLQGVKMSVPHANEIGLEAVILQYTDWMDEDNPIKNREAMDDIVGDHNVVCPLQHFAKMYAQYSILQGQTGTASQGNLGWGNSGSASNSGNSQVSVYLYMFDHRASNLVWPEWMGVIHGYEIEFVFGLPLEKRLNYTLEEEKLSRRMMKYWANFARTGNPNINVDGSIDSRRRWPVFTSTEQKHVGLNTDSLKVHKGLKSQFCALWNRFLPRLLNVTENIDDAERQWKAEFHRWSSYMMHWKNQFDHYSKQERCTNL
T2 sequence (O42275 24-633): as above

Row | SMILES | IC50 ([1]; pH 8.0, average of triplicate) | IC50 ([1]; pH 8.0, triplicate) | Vmax [2] | α [2] | type of inhibition [2] | % Displacement of Propidium Iodide (Mean ± SEM) (PAS of EeAChE)
1 | C=C(C)[C@@H]1CC[C@]2(C(=O)O)CC[C@]3(C)[C@H](CC[C@@H]4[C@@]5(C)[C@@H](C(=O)O)[C@H](OC(=O)c6ccco6)C(C)(C)[C@@H]5CC[C@]43C)[C@@H]12 [Compound 7, 3-O-Furoyl-ceanothic Acid] | 17.9 µM and 18 µM | 17.9 µM | 0.0205 | 10.39 | mixed inhibitors; also recorded: mixed-competitive-type inhibitor | 28.50 ± 2.55%
2 | C=C(C)[C@@H]1CC[C@]2(C(=O)O)CC[C@]3(C)[C@H](CC[C@@H]4[C@@]5(C)[C@@H](C(=O)O)[C@H](O)C(C)(C)[C@@H]5CC[C@]43C)[C@@H]12 [Compound 1, Ceanothic acid] | 47.4 µM and 47 µM | 47.4 µM | – | – | – | 24.24 ± 0.32%
3 | C=C(C)[C@@H]1CC[C@]2(C(=O)O)CC[C@]3(C)[C@H](CC[C@@H]4[C@@]5(C)[C@@H](C(=O)O)[C@H](OCCCCBr)C(C)(C)[C@@H]5CC[C@]43C)[C@@H]12 [Compound 6, 3-(4-Bromobutoxy)-ceanothic Acid] | 8.4 µM and 8 µM | 8.4 µM | 0.0086 | 0.98 | noncompetitive inhibitors | 31.51 ± 1.38%
4 | C=C(C)[C@@H]1CC[C@]2(C(=O)O)CC[C@]3(C)[C@H](CC[C@@H]4[C@@]5(C)[C@@H](C(=O)O)C(=O)C(C)(C)[C@@H]5CC[C@]43C)[C@@H]12 [Compound 2, 3-oxo-Ceanothic Acid] | 5.28 µM and 5.3 µM | 5.28 µM | 0.0032 | 1.01 | noncompetitive inhibitors | 28.71 ± 0.99%
5 | C=C(C)[C@@H]1CC[C@]2(C(=O)OC)CC[C@]3(C)[C@H](CC[C@@H]4[C@@]5(C)[C@@H](C(=O)OC)[C@H](O)C(C)(C)[C@@H]5CC[C@]43C)[C@@H]12 [Compound 3, Ceanothic 2, 28-Dimethyl Ester] | 14.4 µM and 14 µM | 14.4 µM | 0.0133 | 2.98 | mixed inhibitors | 27.01 ± 0.59%
